Laboratory results reported in PMC3957892, “Antibiotic Streptolydigin Requires Noncatalytic Mg^2+ for Binding to RNA Polymerase” (Antimicrobial Agents and Chemotherapy, 2014).

Key:
RNAP = test system: RNAP; set-up: method as in PMID 791108; conditions: Stl analog lacking the acetamide group; cited from earlier work
[1] = target: T1, Thermus aquaticus RNAP β′H936A/R933A mutant (Thermus aquaticus, UniProt Q9KWU6+Q9KWU7, H1242A/R1239A); assay: GTP incorporation in elongation complex, H936A/R933A mutant RNAP; assay type: biochemical
T1 construct: made in house
Method: (§1) Recombinant wild-type (WT) and mutant Thermus aquaticus core RNAPs were constructed and purified as described previously ([25]).
(§2) Elongation complexes (ECs) were assembled with WT and mutant (H936A/R933A and M932A [E. coli numbering]) RNAPs as described previously ([18]) and placed in transcription buffer containing 40 mM KCl and 20 mM Tris (pH 7.9). Prior to complex assembly, RNA was ^32P labeled at the 5′ end by using [γ-^32P]ATP (PerkinElmer). All reactions were carried out at 40°C. Stl (Sigma) with or without 10 mM MgCl2 was added before the reactions for 10 min at 40°C. Elongation reactions were initiated by addition of 1 mM GTP or 1 mM GTP with 10 mM MgCl2; endonucleolytic cleavage reactions were initiated by the addition of 10 mM MgCl2. Reactions were stopped by the addition of formamide-containing buffer, and products were analyzed as described previously ([18]). Fast kinetics experiments were performed as described previously ([18]). The kinetics data that were described well by a single exponent were fitted into a single-exponent equation using the nonlinear regression procedure in SigmaPlot software. Plots were normalized to the predicted maximum, which was taken as 100. The rates were then fitted in a hyperbolic equation to determine the Ki[Stl]. […]

RNAP β′D792G = test system: RNAP β′D792G; set-up: method as in PMID 7592585; conditions: cited from earlier work
[2] = target: T2, WT Thermus aquaticus core RNAP (Thermus aquaticus, UniProt Q9KWU6+Q9KWU7); assay: GTP (NMP) incorporation in assembled elongation complex EC1, WT RNAP; assay type: biochemical; conditions: for Ki: 1 mM GTP incorporation, 40°C
T2 construct: made in house
Method: as §1
Elongation complexes (ECs) were assembled with WT and mutant (H936A/R933A and M932A [E. coli numbering]) RNAPs as described previously ([18]) and placed in transcription buffer containing 40 mM KCl and 20 mM Tris (pH 7.9). Prior to complex assembly, RNA was ^32P labeled at the 5′ end by using [γ-^32P]ATP (PerkinElmer). All reactions were carried out at 40°C. Stl (Sigma) with or without 10 mM MgCl2 was added before the reactions for 10 min at 40°C. Elongation reactions were initiated by addition of 1 mM GTP or 1 mM GTP with 10 mM MgCl2; endonucleolytic cleavage reactions were initiated by the addition of 10 mM MgCl2. Reactions were stopped by the addition of formamide-containing buffer, and products were analyzed as described previously ([18]). Fast kinetics experiments were performed as described previously ([18]). The kinetics data that were described well by a single exponent were fitted into a single-exponent equation using the nonlinear regression procedure in SigmaPlot software. Plots were normalized to the predicted maximum, which was taken as 100. The rates were then fitted in a hyperbolic equation to determine the Ki[Stl]. When the kinetics was described by a double exponent, the predicted maxima of the fast fractions were used for the fit to determine the Stl concentration that inhibited half of the complexes (equivalent of the Ki).
In order to investigate the details of the effects of Stl on RNAP active center functioning, we used artificially assembled elongation complexes (ECs). These complexes are assembled with Thermus aquaticus RNAP, fully complementary synthetic template and nontemplate DNA oligonucleotides, and an RNA oligonucleotide (Fig. 1C and D). […] We analyzed the kinetics of nucleoside monophosphate (NMP) addition in the presence of different concentrations of Stl in the elongation complex EC1, containing a 13-nucleotide-long RNA (Fig. 1C). […]

[3] = target: T3, Thermus aquaticus RNAP β′M932A mutant (Thermus aquaticus, UniProt Q9KWU6+Q9KWU7, M1238A); assay: GTP incorporation in elongation complex, M932A mutant RNAP; assay type: biochemical
T3 construct: made in house
Method: as §1, §2

eukaryotic RNAPs = test system: eukaryotic RNAPs; set-up: method as in PMID 11124018, PMID 11297923, PMID 11839495; conditions: cited from earlier work
[4] = target: T2, WT Thermus aquaticus core RNAP; assay: Intrinsic (endonucleolytic) cleavage / phosphodiester bond hydrolysis in elongation complex EC2, WT RNAP; assay type: biochemical
Method: as §1, §2

[5] = Mg^2+ binding to Stl, titration followed by UV absorption spectrum; conditions: deduced from titration experiment (Fig. 2A), 20 mM HEPES buffer pH 8.0; read-out: Apparent affinity of Stl for Mg^2+
Method: The spectra of Stl were recorded using a UV160U UV-visible (UV-Vis) recording spectrophotometer (Shimadzu Scientific Instruments, Inc.) in a fused silica measuring cell in the presence of the indicated concentrations of the MgCl2 in 20 mM HEPES buffer (pH 8.0).
We attempted to directly visualize if Stl can bind Mg^2+. Stl has a distinct UV absorption spectrum.

E. coli RNAP β′N792D = test system: E. coli RNAP β′N792D; set-up: method as in PMID 16167380; conditions: cited from earlier work

Compound	Inhibition of RNAP relative to Stl (RNAP)	Ki [1] [µM]	Half-inhibitory concentration of Stl for NMP incorporation, times lower than that for WT RNAP ([1]; β′H936A/R933A RNAP vs WT RNAP) [times]	Effect of mutation β′D792G on sensitivity to Stl (RNAP β′D792G)	Ki ([2]; Ki[Stl] (half-inhibitory concentration determined from the proportion of the fast fraction), Stl preincubated −Mg^2+) [µM]	Ki ([2]; Ki[Stl], Stl preincubated +Mg^2+ (10 mM MgCl2)) [µM]	Half-inhibitory concentration of Stl when preincubated with Mg^2+, times lower than when Mg^2+ was added together with NTP ([2]; NMP incorporation) [times]	Ki [3] [µM]	Half-inhibitory concentration of Stl for NMP incorporation, times lower than that for WT RNAP ([3]; β′M932A RNAP vs WT RNAP) [times]	Inhibition of eukaryotic RNAPs (eukaryotic RNAPs)	Ki [4] [µM]	Concentration of Stl required to inhibit half of the ECs during hydrolysis, times lower than during NTP addition ([4]; WT RNAP, hydrolysis vs NTP addition, −Mg^2+ preincubation) [times]	Kd [5] [µM]	Effect of β′N792D substitution in E. coli RNAP on sensitivity to Stl (E. coli RNAP β′N792D)
tirandamycin	significantly weaker inhibitor than Stl													
CNC(=O)[C@@H](C)[C@H]1C(=O)/C(=C(O)/C=C/C(C)=C/[C@@H](C)[C@H]2O[C@@]3(C)O[C@H](C=C[C@@]34CO4)[C@@H]2C)C(=O)N1[C@@H]1CC[C@H](O)[C@H](C)O1 [Stl, streptolydigin]		0.816	15 to 20	strong resistance	13.9	0.882	~15	0.649	15 to 20	does not inhibit	1.83	~8	~1000	significant enhancement of the enzyme sensitivity
